Measured values reported in US20070111208A1, “Determination of free fractions” (Bayer HealthCare AG, priority 2003, published 2007).

Columns and labels:
rat plasma [1] = test: Erythrocyte plasma partitioning (rat plasma); type: in vitro ADME; details: Method B (erythrocyte plasma partitioning); Wistar rat, male; about 200 μg/l
Procedure: Ultrafiltration, equilibrium dialysis and the determination of the free fraction of a drug via distribution between erythrocytes and plasma were performed as previously described^8,12.

rat plasma [2] = test: Protein binding via distribution between diluted plasma and Transil (rat plasma); type: in vitro ADME; details: Method A (Transil); Wistar rat, male; about 200 μg/l; LC/MS-MS or HPLC
Procedure: Protein binding of all drugs was determined via partitioning between diluted plasma and Transil® in vitro. All incubations were performed in glass tubes. An isotonic potassium phosphate buffer, pH 7.4 (Dulbeccos PBS, Sigma D8534) was used for diluting the plasma.
The total incubation volume was generally between 0.3 and 1 ml. The diluted plasma (150 to 980 μl) of the test species was pipetted into glass tubes and Transil® (10 to 300 μl) was added. The test substance dissolved in a small volume of a suitable solvent was added to the Transil®-plasma suspensions.
The degree of the dilution and the Transil®-volume should be chosen with respect to the expected fu value. […]
The radioactivity concentration in the suspension was determined directly after incubation. The radioactivity concentration (or the drug concentration in the case of HPLC or LC/MS-MS analytics) in plasma was determined after centrifugation.
The free fraction in diluted plasma was calculated as the ratio of the partition coefficients for the Transil®/plasma′ (MAplasma) and the Transil®/buffer distribution (MAbuffer).
In a second experiment, the total amount in the Transil®-plasma suspension and the concentration in diluted plasma, Cplasma′, were determined. The partitioning between Transil® and the diluted plasma (the apparent membrane affinity in diluted plasma), MAplasma′, was calculated as: [formula] […]

`O=C(NC[C@H]1CN(c2ccc(N3CCOCC3=O)cc2)C(=O)O1)c1ccc(Cl)s1` [Drug III] was tested, and the fu (rat plasma [1]) was 1.49% and the fu (rat plasma [2]) was 1.62%.
